Results taken from patent US7754741B2, “Pyridine derivatives as fungicidal compounds” (Bayer Cropscience S.A., priority 2003, dated 2010).

How the values were obtained:
Alternaria brassicae = experiment: In vivo test on Alternaria brassicae (leaf spot of crucifers); conditions: Alternaria brassicae; dose 330 ppm; radish plants sprayed 24 hours before contamination; grading 6 to 7 days after contamination vs control plants; read-out: protection (good (at least 50%) to total)
Description: In Vivo Test on Alternaria brassicae (Leaf Spot of crucifers)
(§1) The active ingredient tested is prepared by potter homogenisation in a concentrated suspension type formulation at 100 g/l. This suspension is then diluted with water to obtain the desired active material concentration.
Radish plants (Pernot variety) in starter cups, sown on a 50/50 peat soil-pozzolana substrate and grown at 18-20° C., are treated at the cotyledon stage by spraying with the aqueous suspension described above.
(§2) Plants, used as controls, are treated with an aqueous solution not containing the active material.
After 24 hours, the plants are contaminated by spraying them with an aqueous suspension of Alternaria brassicae spores (40,000 spores per cm^3). The spores are collected from a 12-13-day-old culture.
The contaminated radish plants are incubated for 6-7 days at about 18° C., under a humid atmosphere.
Grading is carried out 6 to 7 days after the contamination, in comparison with the control plants.

[1] = test system: Erysiphe graminis f. sp. tritici; experiment: In vivo test on Erysiphe graminis f. sp. tritici (wheat powdery mildew); conditions: Blumeria graminis, wheat plants sprayed 24 hours before contamination, grading 7 to 14 days after contamination vs control plants, read-out: protection (good (at least 50%) to total)
Description: In Vivo Test on Erysiphe graminis f. sp. tritici (Wheat Powdery Mildew)
as §1
Wheat plants (Audace variety) in starter cups, sown on 50/50 peat soil-pozzolana substrate and grown at 12° C., are treated at the 1-leaf stage (10 cm tall) by spraying with the aqueous suspension described above.
as §2
After 24 hours, the plants are contaminated by dusting them with Erysiphe graminis f. sp. tritici spores, the dusting being carried out using diseased plants. Grading is carried out 7 to 14 days after the contamination, in comparison with the control plants.
Under these conditions, good (at least 50%) to total protection is observed at a dose of 330 ppm with the following compounds: A-4, B-4, B-8, C-2, C-3, C-12, D-4, F-1, H-1, H-2, H-4, H-20, I-3, J-1, J-2, J-3, J-19, J-20, J-31, J-37, J-40, J-55, J-57, J-58, J-59, J-61, K-1, M-5, M-6, R-1, R-10, R-26, R-29, V-7.

Botrytis cinerea = experiment: In vivo test on Botrytis cinerea (cucumber grey mould); conditions: Botrytis cinerea; dose 330 ppm; cucumber plants sprayed 24 hours before contamination; grading 5/7 days after contamination vs control plants; read-out: protection (good (at least 50%) to total)
Description: In Vivo Test on Botrytis cinerea (Cucumber Grey Mould)
as §1
(§3) Cucumber plants (Marketer variety) in starter cups, sown on a 50/50 peat soil-pozzolana substrate and grown at 18-20° C., are treated at the cotyledon Z11 stage by spraying with the aqueous suspension described above. Plants, used as controls, are treated with an aqueous solution not containing the active material.
After 24 hours, the plants are contaminated by depositing drops of an aqueous suspension of Botrytis cinerea spores (150,000 spores per ml) on upper surface of the leaves. The spores are collected from a 15-day-old culture and are suspended in a nutrient solution composed of: • 20 g/L of gelatin • 50 g/L of cane sugar • 2 g/L of NH4NO3 • 1 g/L of KH2PO4
The contaminated cucumber plants are settled for 5/7 days in a climatic room at 15-11° C. (day/night) and at 80% relative humidity.
Grading is carried out 5/7 days after the contamination, in comparison with the control plants. Under these conditions, good (at least 50%) to total protection is observed at a dose of 330 ppm with the following compounds :B-7, B-8, B-13, B-14, C-3, C-12, C-13, C-14, C-15, C-16, D-4, D-5, E-4, H-1, H-2, H-4, H-7, H-9, H-22, J-1, J-2, J-3, J-19, J-31, J-32, J-33, J-34, J-35, J-37, J-39, J-43, J-44, R-1, R-10, R-23, R-24, R-26, R-31, V-1, V-8.

Pyrenophora teres = experiment: In vivo test on Pyrenophora teres (barley net blotch); conditions: Pyrenophora teres, 288 h; dose 330 ppm; barley plants sprayed 24 hours before contamination; grading 12 days after contamination vs control plants; read-out: protection (good (at least 50%) to total)
Description: In Vivo Test on Pyrenophora teres (Barley Net Blotch)
as §1
as §3, with “Barley” for “Cucumber”, “(Express” for “(Marketer”, “12°” for “18-20°”, “1-leaf” for “cotyledon Z11”, “stage (10 cm tall)” for “stage”
After 24 hours, the plants are contaminated by spraying them with an aqueous suspension of Pyrenophora teres spores (12,000 spores per ml). The spores are collected from a 12-day-old culture The contaminated barley plants are incubated for 24 hours at about 20° C. and at 100% relative humidity, and then for 12 days at 80% relative humidity.

Structure (SMILES)	pest or weed control at 330 ppm (Alternaria brassicae) [%]	pest or weed control at 330 ppm [1] [%]	pest or weed control at 330 ppm (Botrytis cinerea) [%]	pest or weed control at 330 ppm (Pyrenophora teres) [%]
Cc1onc(-c2c(Cl)cccc2Cl)c1C(=O)NCCc1ncc(C(F)(F)F)cc1Cl [Compound M-5]	≥ 50	≥ 50		
Cc1cc(C(=O)NCCc2ncc(C(F)(F)F)cc2Cl)c(C)o1 [Compound B-7]	≥ 50		≥ 50	≥ 50
Cc1nn(C)c(F)c1C(=O)NCCc1ncc(C(F)(F)F)cc1Cl [Compound J-1]	≥ 50	≥ 50	≥ 50	≥ 50
O=C(NCCc1ncc(C(F)(F)F)cc1Cl)c1occc1Br [Compound A-4]	≥ 50	≥ 50		≥ 50
Cn1cc(C(=O)NCCc2ncc(C(F)(F)F)cc2Cl)c(I)n1 [Compound J-58]		≥ 50		≥ 50
Cc1cscc1C(=O)NCCc1ncc(C(F)(F)F)cc1Cl [Compound D-5]	≥ 50		≥ 50	≥ 50
O=C(NCCc1ncc(Cl)cc1Br)c1sccc1I [Compound C-16]	≥ 50		≥ 50	≥ 50
Cn1nc(C(=O)NCCc2ncc(C(F)(F)F)cc2Cl)c(Br)c1[N+](=O)[O-] [Compound I-3]	≥ 50	≥ 50		≥ 50
Cn1cc(C(=O)NCCc2nc(Cl)c(Cl)cc2Cl)c(C(F)F)n1 [Compound J-34]			≥ 50	≥ 50
CC1=[SH]C(C(=O)NCCc2ncc(Cl)cc2Cl)=C(C(F)(F)F)N1 [Compound H-4]	≥ 50	≥ 50	≥ 50	≥ 50
Cc1occc1C(=O)NCCc1ncc(Cl)cc1Cl [Compound B-13]	≥ 50		≥ 50	≥ 50
O=C(NCCc1ncc(C(F)(F)F)cc1Cl)c1cccnc1Br [Compound R-26]	≥ 50	≥ 50	≥ 50	≥ 50
Cc1c(F)c(F)nc(CCNC(=O)c2cn(C)nc2C(F)F)c1F [Compound J-40]		≥ 50		≥ 50
Cc1nn(C)cc1C(=O)NCCc1ncc(Cl)cc1Cl [Compound J-19]	≥ 50	≥ 50	≥ 50	≥ 50
O=C(NCCc1ncc(C(F)(F)F)cc1Cl)c1sccc1I [Compound C-12]	≥ 50	≥ 50	≥ 50	≥ 50
Cc1ccsc1C(=O)NCCc1ncc(C(F)(F)F)cc1Cl [Compound C-3]	≥ 50	≥ 50	≥ 50	≥ 50
Cc1nn(C)cc1C(=O)NCCc1ncc(C(F)(F)F)cc1Cl [Compound J-2]	≥ 50	≥ 50	≥ 50	≥ 50
Cn1cc(C(=O)NCCc2ncc(C(F)(F)F)cc2Cl)c(Cl)n1 [Compound J-57]		≥ 50		≥ 50

Structure (SMILES)	pest or weed control at 330 ppm (Alternaria brassicae) [%]	pest or weed control at 330 ppm [1] [%]	pest or weed control at 330 ppm (Botrytis cinerea) [%]	pest or weed control at 330 ppm (Pyrenophora teres) [%]
Cc1cc(Br)cnc1CCNC(=O)c1cn(C)nc1C(F)F [Compound J-32]	≥ 50		≥ 50	≥ 50
O=C(NCCc1ncc(C(F)(F)F)cc1Cl)c1ccoc1I [Compound B-14]	≥ 50		≥ 50	≥ 50
Cc1onc(-c2c(F)cccc2Cl)c1C(=O)NCCc1ncc(C(F)(F)F)cc1Cl [Compound M-6]	≥ 50	≥ 50		
Cn1cc(C(=O)NCCc2ncc(Cl)cc2Br)c(C(F)F)n1 [Compound J-39]	≥ 50		≥ 50	≥ 50
O=C(NCCc1ncc(C(F)(F)F)cc1Cl)c1cccnc1Cl [Compound R-1]	≥ 50	≥ 50	≥ 50	≥ 50
Cn1cc(C(=O)NCCc2ncc(C(F)(F)F)cc2Cl)c(C(F)F)n1 [Compound J-3]	≥ 50	≥ 50	≥ 50	≥ 50
Cc1cc(C(=O)NCCc2ncc(C(F)(F)F)cc2Cl)n(C(C)(C)C)n1 [Compound K-1]		≥ 50		
O=C(NCCc1ncc(C(F)(F)F)cc1Cl)c1sccc1Cl [Compound C-2]	≥ 50	≥ 50		
Cc1ncccc1C(=O)NCCc1ncc(C(F)(F)F)cc1Cl [Compound R-10]	≥ 50	≥ 50	≥ 50	≥ 50
Cn1cc(C(=O)NCCc2nc(Cl)c(Cl)cc2Cl)c(C(F)(F)F)n1 [Compound J-20]		≥ 50		≥ 50
Cc1oc(C(C)(C)C)cc1C(=O)NCCc1ncc(C(F)(F)F)cc1Cl [Compound B-4]	≥ 50	≥ 50		
Cc1cc(C(=O)NCCc2ncc(C(F)(F)F)cc2Cl)c(C(F)(F)F)o1 [Compound B-8]	≥ 50	≥ 50	≥ 50	≥ 50
O=C(NCCc1ncc(C(F)(F)F)cc1Cl)c1ccsc1I [Compound D-4]	≥ 50	≥ 50	≥ 50	≥ 50
Cn1cccc1C(=O)NCCc1ncc(C(F)(F)F)cc1Cl [Compound F-1]		≥ 50		
O=C(NCCc1ncc(Cl)cc1Cl)c1sccc1I [Compound C-13]	≥ 50		≥ 50	≥ 50
CON=C(C)c1cnc(CCNC(=O)c2cccnc2Cl)c(Cl)c1 [Compound R-23]	≥ 50		≥ 50	≥ 50
Cn1cc(C(=O)NCCc2ncc(Cl)cc2F)c(C(F)F)n1 [Compound J-33]	≥ 50		≥ 50	≥ 50
